Results from patent publication US20230241014A1, “MEK-INHIBITORS FOR THE TREATMENT OR PREVENTION OF CORONAVIRUS INFECTIONS AND/OR COVID-19 CYTOKINE STORM” (priority 2020, published 2023).

Key:
[1] = system: SARS-CoV-2; test: SARS-CoV-2 Syrian hamster infection model; conditions: for reduction of progeny virus in throat swabs (TCID50): 100 mg/kg then 75 mg/kg once daily oral; for reduction of progeny virus in throat swabs (TCID50) / reduction of viral load in throat swabs (PCR): day 3 p.i.; for tolerability, weight loss, adverse effects: compared to vehicle
[2] = system: VSV pseudotype virus carrying the SARS-CoV-2 Spike protein; assay type: cell-based
[3] = system: Calu-3 cells; test: Cytotoxicity evaluation in Calu-3 cells; assay type: cell-based, Homo sapiens; conditions: Calu-3, 72 h treatment
Protocol: In a next step, Calu-3 cells were incubated with increasing amounts of ATR-002 over 24, 48 or 72 hours. Specifically, Calu-3 cells were infected with SARS-CoV-2 (FI) using a MOI of 0.01. 1 h.p.i. cells were treated with ATR-002. Mock, SARS-CoV-2 and DMSO served as controls. […] Untreated (SARS-CoV-2) and DMSO (0.1%) treated cells served as negative controls. […] DMSO was used as reference. […] Data in combination with (C) was used to calculate the CC50 value and the selectivity index (SI).

[4] = system: SARS-CoV-2 (FI); assay type: cell-based
[5] = system: peripheral blood mononuclear cells (PBMC's); test: T-Cell Inflammation Inhibition Assay (PHA Stimulation); assay type: cell-based, human; conditions: ATR-002 100, 50, 25 μM, Dexamethasone 100 nM, 24 h
[6] = system: SARS-CoV-2; assay type: cell-based; conditions: CaCo-2 cells infected SARS-CoV-2 (MOI 0.1); 0.098-100 μM, 24 h
[7] = system: IL-6, IL-8, MCP-1, IP-10 and CCL5 mRNA; test: Pro-inflammatory cytokine mRNA in SARS-CoV-2 infected Calu-3 cells (real-time PCR); assay type: cell-based, Homo sapiens; conditions: Calu-3, SARS-CoV-2 (FI) MOI 0.01, increasing amounts
[8] = system: MxA and IL8 mRNA expression; test: poly (I:C) stimulation of A549 cells, MxA and IL8 mRNA; conditions: A549, 100 ng/ml poly (I:C), 24 h
[9] = system: SARS-CoV-2; assay type: cell-based; conditions: Caco-2, Vero E6, Calu-3; MOI 0.01; 100, 75, 50 μM; 24 h
[10] = system: ACE2; test: ACE2 expression in Calu-3 cells (immunofluorescence microscopy, WES); assay type: cell-based, Homo sapiens; conditions: 100 μM, 24 h
Protocol: After this, it was tested whether ACE2 expression is reduced in cells after ATR-002 treatment. Calu-3 cells were treated with ATR-002 for 24 hours and the results were analysed via immunofluorescence microscopy and WES technology. Specifically, Calu-3 cells were seeded on glass cover slips in 24-well plates, 1×10^5 cells per well and incubated for 48 h at 37° C., 5% CO2 After washing the cells with medium (IMDM with 10% FBS and 1% P/S), 1 mL of 100 μM ATR-002 in medium or 1 mL 1% DMSO in medium (solvent control) were added to the wells and incubated for 24 h at 37° C., 5% CO2.
Then the wells were washed once with PBS and fixed with 300 μL/well 4% PFA in PBS for 10 minutes at room temperature. […] The slides were let dry at 4° C. in the dark and then analysed using a confocal laser scanning microscope (LSM800, Zeiss).

[11] = system: SARS-CoV-2 viral gene RdRP; assay type: cell-based; conditions: Vero cells, MOI 0.01, 50 μM, 24, 36 and 48 hpi
[12] = system: cytokine & chemokine gene expression in lungs; test: Acute lung injury (ALI) mouse model, LPS induced cytokine and chemokine gene expression; assay type: in vivo; conditions: LPS 5 mg/kg i.p.; 25 mg/kg i.p. 1 h post stimulation; 6 h post treatment
[13] = system: peripheral blood mononuclear cells (PBMC's); test: T-cell Inflammation Inhibition Assay (Anti-CD3 Stimulation); assay type: cell-based, human; conditions: ATR-002 100, 50, 25 μM, Dexamethasone 100 nM, 24 h
[14] = treatment start 4 hours p.i., day 4 p.i.
[15] = treatment start 24 hours p.i., day 4 p.i.

O=C(O)c1ccc(F)c(F)c1Nc1ccc(I)cc1Cl [ATR-002, 2-(2-chloro-4-iodophenylamino)-N-3,4-difluoro benzoic acid]
reduction of progeny virus in throat swabs (TCID50) ([1]; treatment start 4 hours p.i.): 1.1 log 10
tolerability, weight loss, adverse effects ([1]; treatment start 4 hours p.i.): well tolerated without significant weight loss
reduction of viral load in throat swabs (PCR) ([1]; treatment start 4 hours p.i.): 1.1 log 10
affected lung tissue (lung lesions, estimated percentage) [1, 14]: significantly reduced affected lung tissue
reduction in infectious virus titers (TCID50/g tissue) in the nasal turbinates [1, 14]: 1.3 log 10
reduction of viral load in the nasal turbinates (PCR) [1, 14]: 1.1 log 10
reduction of progeny virus in throat swabs (TCID50) ([1]; treatment start 24 hours p.i.): 1.3 log 10
tolerability, weight loss, adverse effects ([1]; treatment start 24 hours p.i.): well tolerated without significant weight loss
reduction of viral load in throat swabs (PCR) ([1]; treatment start 24 hours p.i.): 1.2 log 10
affected lung tissue (lung lesions, estimated percentage) [1, 15]: significantly reduced affected lung tissue
infectious virus titers in the nasal turbinates [1, 15]: not the treatment started 24 hours p.i., significantly reduced infectious virus titers
internalization of the VSV pseudotype virus (GFP positive cells) [2]: reduction in the internalization
cytotoxicity at antiviral concentrations [3]: non-toxic concentration range
duration of the effect on progeny viral particles ([4]; Calu-3, MOI 0.01, 10-150 μM): maintained over the total infection time of 72 hours
production of progeny viral particles ([4]; Calu-3, MOI 0.01, 10-150 μM, 24, 48, 72 h): concentration dependent decrease
cell damage of infected cells (light microscopy) ([4]; Calu-3 infected with SARS-CoV-2): did not show the characteristic cell damage
inhibition of cytokine/chemokine stimulation (summary) [5]: significant, dose dependent inhibition
inhibition of SARS-CoV-2 (virus titer) [6]: seen at concentrations of 50 and 100 μM
inhibition of nucleocapsid protein (viral marker) [6]: seen at concentrations of 50 and 100 μM
expression of pro-inflammatory cytokines (IL-6, IL-8, MCP-1, IP-10, CCL5 mRNA) [7]: reduce the expression of pro-inflammatory cytokines
MxA mRNA expression (anti-viral interferon system) [8]: constant expression of MxA mRNA
IL8 mRNA expression ([8]; even low concentrations): strong reduction
virus titer via RT-qPCR, effect across cell types [9]: effect seen on all cell types was comparable
ACE2 on Calu-3 cells [10]: reduction of ACE2
SARS-CoV-2 viral gene RdRP genome copies [11]: confirmed
IL-1beta gene expression in lung [12]: decrease
IL-8 gene expression in lung [12]: decrease
IP-10 gene expression in lung [12]: decrease
MCP-1 gene expression in lung [12]: decrease
MIP-1beta gene expression in lung [12]: decrease
TNF-alpha gene expression in lung [12]: decrease
inhibition of cytokine/chemokine stimulation (summary) [13]: significant, dose dependent inhibition
